Results as given in US20080070987A1, “META-XYLYLENEDIAMINE VANADATE SALTS” (priority 2006, published 2008).

Experiments:
[1] = biological target: T1, Mouse SSAO/VAP-1 (Mus musculus, UniProt O70423); test: Fluorimetric detection of SSAO-mediated H2O2 formation (Amplex Red), mouse adipose tissue membranes; assay type: biochemical; conditions: production of hydrogen peroxide; compounds at 100 μM
T1 construct: from tissue; host or cells: internal adipose tissue membranes of Swiss mice
T1 sequence (O70423 1-765): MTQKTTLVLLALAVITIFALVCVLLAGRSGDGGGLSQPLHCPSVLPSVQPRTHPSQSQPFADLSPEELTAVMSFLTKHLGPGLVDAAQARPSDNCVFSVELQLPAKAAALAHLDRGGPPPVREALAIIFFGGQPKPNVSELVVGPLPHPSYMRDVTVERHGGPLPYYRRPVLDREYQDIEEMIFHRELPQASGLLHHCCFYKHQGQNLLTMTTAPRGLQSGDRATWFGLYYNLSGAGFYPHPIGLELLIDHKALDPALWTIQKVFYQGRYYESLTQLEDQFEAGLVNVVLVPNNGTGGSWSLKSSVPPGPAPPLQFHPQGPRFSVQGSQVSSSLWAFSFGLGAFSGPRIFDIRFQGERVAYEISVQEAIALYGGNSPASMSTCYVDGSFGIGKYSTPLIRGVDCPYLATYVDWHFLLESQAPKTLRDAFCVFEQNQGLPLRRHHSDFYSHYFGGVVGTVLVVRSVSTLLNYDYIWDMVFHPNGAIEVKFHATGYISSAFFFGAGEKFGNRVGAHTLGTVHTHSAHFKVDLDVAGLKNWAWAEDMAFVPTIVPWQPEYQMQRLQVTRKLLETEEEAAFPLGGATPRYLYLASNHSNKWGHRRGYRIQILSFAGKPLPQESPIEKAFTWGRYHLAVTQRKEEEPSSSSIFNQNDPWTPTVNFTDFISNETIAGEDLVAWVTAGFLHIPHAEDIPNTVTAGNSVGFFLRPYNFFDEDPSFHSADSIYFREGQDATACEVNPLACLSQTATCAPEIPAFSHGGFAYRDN
Method: Internal adipose tissue was obtained from Swiss mice weighing between 20 to […]. […] The lysates were then centrifuged at 5000 g at 4° C. for 15 min to eliminate the fat cake and non-homogenized material, and supernatants were collected and centrifuged at 200000 g for 2 h at 4° C. Pelleted membranes were resuspended in 30 mmol/l HEPES and stored at −80° C. until use. Protein concentrations were measured by the Bradford method with γ-globulin as standard.
(§1) The SSAO activity of human recombinant VAP-1 (0.1 μg prot/assay) and mouse adipose tissue membranes (1 μg prot/assay) was measured using Amplex Red Reagent, a highly sensitive and stable probe for H2O2. The reaction was performed in 200 μL of 0.2 mol/l phosphate buffer at pH 7.4 for 50 min at 37° C. in black non-phosphorescent microplates (Nunc). Catalytic reaction was initiated by the addition of the amines indicated as putative SSAO substrates and H2O2-detecting mixture containing horseradish peroxidase and Amplex Red, as previously described. Fluorescence intensity was measured (excitation, 545 nm, 590 nm, Bio-Tek fluorescence plate reader) and H2O2 concentration was calculated form calibration curves generated by serial dilutions of standard H2O2. Fluorescence readings were performed every 5 min. […] To test amines as putative SSAO inhibitors, they were pre-incubated for 20 min with semicarbazide, and their percentage of inhibition was calculated by referring to SSAO activity produced by benzylamine. The kinetic parameters Km and Vmax were calculated using appropriate non-linear curve-fitting formula based on the Michaelis-Menten equation and using GraphPad Prism 4.0 software.

[2] = biological target: T2, Human SSAO/VAP-1 (Homo sapiens, UniProt Q16853); test: Fluorimetric detection of SSAO-mediated H2O2 formation (Amplex Red), human recombinant VAP-1; assay type: biochemical; conditions: production of hydrogen peroxide; compounds at 1 mM
T2 sequence (Q16853 1-763): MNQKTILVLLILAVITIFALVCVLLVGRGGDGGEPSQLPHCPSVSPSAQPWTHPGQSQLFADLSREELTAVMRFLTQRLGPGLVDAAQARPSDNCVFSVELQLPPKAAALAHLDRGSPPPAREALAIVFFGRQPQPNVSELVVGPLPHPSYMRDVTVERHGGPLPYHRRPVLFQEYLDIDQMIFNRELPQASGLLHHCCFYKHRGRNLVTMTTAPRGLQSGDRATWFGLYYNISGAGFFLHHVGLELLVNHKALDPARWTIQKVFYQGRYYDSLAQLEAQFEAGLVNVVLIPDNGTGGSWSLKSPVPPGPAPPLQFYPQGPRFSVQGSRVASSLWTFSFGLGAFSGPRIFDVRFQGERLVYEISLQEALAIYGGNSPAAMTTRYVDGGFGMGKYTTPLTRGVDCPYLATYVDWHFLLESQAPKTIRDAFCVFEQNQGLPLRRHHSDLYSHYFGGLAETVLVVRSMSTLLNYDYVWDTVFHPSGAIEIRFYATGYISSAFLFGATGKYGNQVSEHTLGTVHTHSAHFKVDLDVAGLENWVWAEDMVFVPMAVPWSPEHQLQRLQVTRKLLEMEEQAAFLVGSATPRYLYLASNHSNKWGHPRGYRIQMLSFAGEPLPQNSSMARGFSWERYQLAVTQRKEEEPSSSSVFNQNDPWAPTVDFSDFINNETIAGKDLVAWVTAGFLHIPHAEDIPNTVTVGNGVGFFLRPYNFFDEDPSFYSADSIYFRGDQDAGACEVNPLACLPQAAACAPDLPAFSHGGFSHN
Method: as §1

[3] = test system: isolated rat adipocytes; test: Glucose (2-deoxyglucose) transport in isolated rat adipocytes; assay type: cell-based, Wistar rats; conditions: for stimulation of glucose transport (2-DG uptake), in words: 45 min incubation; for effect of semicarbazide on the stimulation of glucose transport: 1 mM semicarbazide
Method: FIG. 1 is a graphical illustration of the hexaquis(benzylammonium) decavanadate effects on glucose transport in isolated rat adipocytes. In this Figure, V corresponds to the rate of 2-deoxyglucose transport (expressed relative to the basal rate), and the results are mean +standard error of the mean (SEM). The adipocytes were incubated in the absence of stimulants in the following conditions: basal (1); in the presence of 100 nM insulin (2); in the presence of hexaquis(benzylammonium) decavanadate at concentrations of 0.5 μM (3), 1 μM (4), 2.5 μM (5), 5 μM (6), 10 μM (7), 25 μM (8), 50 μM (9), and 100 μM (10). The cells were also incubated in the presence of the semicarbazide inhibitor (1 mM), and 10 μM hexaquis(benzylammonium) decavanadate (11), 25 μM of hexaquis(benzylammonium) decavanadate (12) or 50 μM hexaquis(benzylammonium) decavanadate (13). In parallel, the cells were incubated in presence of 100 μM of sodium vanadate and 100 μM of benzylamine, in the absence (14) or in the presence of 1 mM of semicarbazide (15).
FIG. 2 is a graphical illustration of the effects of hexaquis(benzylammonium) decavanadate, pentaquis(benzylammonium) decavanadate and tetraquis(benzylammonium) decavanadate on glucose transport in isolated rat adipocytes. V corresponds to the rate of 2-deoxyglucose uptake (expressed as relation with basal group), and the results are mean +standard error mean. The adipocytes were incubated in the absence of stimulants in the following conditions: basal (1); in the presence of 100 nM of insulin (2); in the presence of hexaquis(benzylammonium) decavanadate at concentrations of 10 μM (3) and 25 μM (4), pentaquis(benzylammonium) decavanadate at concentrations of 10 μM (8) and 25 μM (9), and tetraquis(benzylammonium) decavanadate at concentrations of 10 μM (11) and 25 μM (12). The cells were also incubated in the presence of the semicarbazide inhibitor (1 mM) and, 25 μM of hexaquis(benzylammonium) decavanadate (5), 25 μM of pentaquis(benzylammonium) decavanadate (10) or 25 μM of tetraquis(benzylammonium) decavanadate (13). In parallel, the cells were incubated in the presence of 100 μM of sodium vanadate (6) or in the presence of 250 μM of sodium vanadate (7).
Adipose cells from Wistar rats were incubated for 45 minutes in basal conditions (Basal) or in the presence of 100 nM insulin (Ins) and different concentrations of. hexaquis(benzylammonium) decavanadate (B6V10) in the absence or in the presence of 1 mM semicarbazide (SCZ). Subsequently, 2-DG transport was measured over a 5 min. interval.
The effects of the three tested compounds (B6V10, B5V10 and B4V10) were compared. Adipose cells from Wistar rats were incubated for 45 minutes in basal conditions (Basal) or in the presence of 100 nM insulin (Ins), and different concentrations of decavanadate (V10), hexaquis(benzylammonium) decavanadate (B6V10), pentaquis(benzylammonium) decavanadate (B5V10) or tetraquis(benzylammonium) decavanadate (B4V10) in the absence or in the presence of 1 mM semicarbazide (SCZ). 2-DG transport was measured over 5 min. intervals.
In additional experiments, compounds shown in FIG. 6A, 2-(4-fluoro-phenyl)ethylamine (compound A), 3-phenylpropylamine (compound B), 4-fluoro-benzylamine (compound C) and 4-phenylbutylamine (compound D) were assessed using the experimental methods set forth above for the capacity to stimulate 2-DG uptake in isolated rat adipocytes. Adipose cells from Wistar rats were incubated for 45 minutes in basal conditions (Basal) or in the presence of 100 nM insulin (Ins), and different concentrations of vanadium salts of 2-(4-fluoro-phenyl)-ethylamine (compound A), 3-phenyl-propylamine (compound B), 4-fluoro-benzylamine (compound C) and 4-phenyl-butylamine (compound D). 2-DG transport was measured over 5 min.
The effects of incubation with semicarbazide or phosphatidylinositol 3-kinase inhibitors were also investigated. […]

Molecule	Mouse SSAO/VAP-1 activity % relative to benzylamine [1] [%]	Human SSAO/VAP-1 activity % relative to benzylamine [2] [%]	stimulation of glucose transport (2-DG uptake), in words [3]	also measured
CC(=O)N[C@H](C(=O)NCc1cccc(CN)c1)c1ccccc1 [Example 7, (S)-2-acetamido-N-(3-(aminomethyl)benzyl)-2-phenylacetamide]	13 ± 3	2 ± 1		
CCC(=O)NCc1cccc(CN)c1 [Example 3, N-(3-(aminomethyl)benzyl)propionamide]	27 ± 1	4 ± 1		
NCCCCc1ccccc1 [compound D, 4-phenylbutylamine]			markedly stimulated glucose transport	
Cc1ccc(S(=O)(=O)NCc2cccc(CN)c2)cc1 [Example 8, N-(3-(aminomethyl)benzyl)-4-methylbenzenesulfonamide]	14 ± 3	12 ± 2		
tetraquis(benzylammonium) decavanadate [Example B4V10]			pronounced stimulation on glucose transport	effect of semicarbazide on the stimulation of glucose transport [3]: blocked in the presence of semicarbazide; effect of semicarbazide on the stimulation of glucose transport ([3]; listed as tetraquis(benzylammonium) decavanadate): this effect was inhibited
NCc1ccc(C(=O)NCc2cccc(CN)c2)cc1 [Example 11, 4-(aminomethyl)-N-(3-(aminomethyl)benzyl)benzamide]	12 ± 1	17 ± 2		
NCc1cccc(CNC(=O)c2ccc(O)cc2)c1 [Example 10, N-(3-(aminomethyl)benzyl)-4-hydroxybenzamide]	26 ± 1	5 ± 1		
NCc1ccccc1 [Example 1, benzylamine, reference compound]	100	100		
NCCCc1ccccc1 [compound B, 3-phenylpropylamine]			markedly stimulated glucose transport	
CC(=O)NCc1cccc(CN)c1 [Example 2, N-(3-(aminomethyl)benzyl)acetamide]	16 ± 4	3 ± 1		
NCc1ccc(F)cc1 [compound C, 4-fluoro-benzylamine]			markedly stimulated glucose transport	
NCCc1ccc(F)cc1 [compound A, 2-(4-fluoro-phenyl)ethylamine]			markedly stimulated glucose transport	
pentaquis(benzylammonium) decavanadate [Example B5V10]			pronounced stimulation on glucose transport	effect of semicarbazide on the stimulation of glucose transport [3]: blocked in the presence of semicarbazide; effect of semicarbazide on the stimulation of glucose transport ([3]; listed as pentaquis(benzylammonium) decavanadate): this effect was inhibited
NCc1cccc(CNC(=O)CI)c1 [Example 4, N-(3-(aminomethyl)benzyl)-2-iodoacetamide]	61 ± 5	38 ± 3		
NCc1cccc(CNC(=O)c2ccc(Br)cc2)c1 [Example 12, N-(3-(aminomethyl)benzyl)-4-bromobenzamide]	46 ± 1	16 ± 2		
C=CCOC(=O)NCc1cccc(CN)c1 [Example 5, allyl 3-(aminomethyl)benzylcarbamate]	49 ± 3	21 ± 1		
NCc1cccc(CNC(=O)c2ccccc2)c1 [Example 6, N-(3-(aminomethyl)benzyl)benzamide]	58 ± 4	17 ± 1		
